According to patent publication EP4818168A1, “FUSED RING COMPOUND, PHARMACEUTICAL COMPOSITION THEREOF AND USE THEREOF” (priority 2023, dated 2025):

Key:
H82 cells = assay: cells; assay type: cell-based; settings: Homo sapiens, NCI-H82; H82 cells, 4000 cells/well, CellTiter-Glo; read-out: IC50 in H82 Cells
Outline: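 H82 cells in RPMI1640 + 10% FBS exposed to compound (0.1% DMSO final) for 6 days at 37 °C, 5% CO2. Viability read by CellTiter-Glo ATP luminescence, normalised to DMSO and medium controls; IC50 from nonlinear regression of the dose–survival curve.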

AURKA = target: T1, AURKA (Homo sapiens, UniProt O14965); assay type: cell-based; settings: Jurkat cells, 24 h, Table 2
T1 construct: endogenous in cells; host or cells: Jurkat cells
T1 sequence (O14965 1-403): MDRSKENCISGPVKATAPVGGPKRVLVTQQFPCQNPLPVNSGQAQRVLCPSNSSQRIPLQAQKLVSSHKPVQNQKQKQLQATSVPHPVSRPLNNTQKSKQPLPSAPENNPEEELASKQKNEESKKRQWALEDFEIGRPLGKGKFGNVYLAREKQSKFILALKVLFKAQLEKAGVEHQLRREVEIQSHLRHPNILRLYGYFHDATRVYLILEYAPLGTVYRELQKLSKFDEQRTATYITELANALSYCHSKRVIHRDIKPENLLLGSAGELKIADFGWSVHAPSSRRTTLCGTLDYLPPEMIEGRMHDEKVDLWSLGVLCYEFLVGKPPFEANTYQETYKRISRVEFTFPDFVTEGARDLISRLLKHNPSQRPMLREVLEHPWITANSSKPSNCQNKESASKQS
Outline: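 Jurkat cells seeded at 1×10^6 cells/500 µL and treated with compound; lysates run on SDS-PAGE, blotted to nitrocellulose and probed overnight at 4°C for AURKA. Chemiluminescent or fluorescent band intensity fitted to a curve to give DC50 for protein degradation.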

| Compound | IC50 (H82 cells) | Percentage of AURKA Degradation Induced by 100 nM Compound in Jurkat Cells (AURKA) | Percentage of AURKA Degradation Induced by 1 µM Compound in Jurkat Cells (AURKA) |
| --- | --- | --- | --- |
| O=C1CCN(c2ccc(N3CCC(N4CCN(C56CC(Nc7ncc8c(n7)-c7ccc(Cl)cc7C(c7c(F)cccc7F)=NC8)(C5)C6)CC4)C3)nc2)C(=O)N1 (stereo not drawn) [Compound A227] | < 1000 nM | ++ (30% < Degradation ≤ 70%) | + (Degradation ≤ 30%) |
| O=C1CCN(c2ccc(N3CCC(C(=O)N4CCN(c5ccc(Nc6ncc7c(n6)-c6ccc(Cl)cc6C(c6c(F)cccc6F)=NC7)cc5)CC4)CC3)nc2)C(=O)N1 [Compound A229] | < 1000 nM | +++ (Degradation > 70%) | +++ (Degradation > 70%) |
| O=C1CCN(c2ccc(N3CCC(CN4CCN(C56CC(Nc7ncc8c(n7)-c7ccc(Cl)cc7C(c7c(F)cccc7F)=NC8)(C5)C6)CC4)C3)nc2)C(=O)N1 (stereo not drawn) [Compound A231] | < 1000 nM | +++ (Degradation > 70%) | +++ (Degradation > 70%) |
| O=C1CCN(c2ccc(N3CCC(N4CCN(c5ccc(Nc6ncc7c(n6)-c6ccc(Cl)cc6C(c6c(F)cccc6F)=NC7)cc5)C5(COC5)C4)CC3)nc2)C(=O)N1 [Compound A233] | < 1000 nM | ++ (30% < Degradation ≤ 70%) | +++ (Degradation > 70%) |
| O=C1CCN(c2cccc(N3CC(C(=O)N4CCOc5ccc(Nc6ncc7c(n6)-c6ccc(Cl)cc6C(c6c(F)cccc6F)=NC7)cc5C4)C3)c2)C(=O)N1 [Compound A235] | < 1000 nM | ++ (30% < Degradation ≤ 70%) | + (Degradation ≤ 30%) |
| CN1CCN(CC2CN(c3cccc(N4CCC(=O)NC4=O)c3)C2)Cc2cc(Nc3ncc4c(n3)-c3ccc(Cl)cc3C(c3c(F)cccc3F)=NC4)ccc21 [Compound A236] | < 1000 nM | +++ (Degradation > 70%) | ++ (30% < Degradation ≤ 70%) |
| O=C1CCN(c2cccc(N3CC(CN4CCOc5ccc(Nc6ncc7c(n6)-c6ccc(Cl)cc6C(c6c(F)cccc6F)=NC7)cc5C4)C3)c2)C(=O)N1 [Compound A237] | < 1000 nM | +++ (Degradation > 70%) | +++ (Degradation > 70%) |
| CN1CCN(CC2CCN(c3cccc(N4CCC(=O)NC4=O)c3)CC2)Cc2cc(Nc3ncc4c(n3)-c3ccc(Cl)cc3C(c3c(F)cccc3F)=NC4)ccc21 [Compound A239] | < 1000 nM | +++ (Degradation > 70%) | +++ (Degradation > 70%) |
| O=C1CCN(c2cccc(N3CCC(CN4CCOc5ccc(Nc6ncc7c(n6)-c6ccc(Cl)cc6C(c6c(F)cccc6F)=NC7)cc5C4)CC3)c2)C(=O)N1 [Compound A240] | < 1000 nM | +++ (Degradation > 70%) | +++ (Degradation > 70%) |
| O=C1CCN(c2ccc(N3CCN(C(=O)C4CCN(C56CC(Nc7ncc8c(n7)-c7ccc(Cl)cc7C(c7c(F)cccc7F)=NC8)(C5)C6)CC4)CC3)nc2)C(=O)N1 [Compound A243] | < 1000 nM | +++ (Degradation > 70%) | +++ (Degradation > 70%) |
| Cn1nc(N2CCC(=O)NC2=O)c2cc(F)c(N3CCN(C4CN(c5cccc(Nc6ncc7c(n6)-c6ccc(Cl)cc6C(c6c(F)cccc6F)=NC7)c5)C4)CC3)cc21 [Compound A244] | < 1000 nM | ++ (30% < Degradation ≤ 70%) | +++ (Degradation > 70%) |
